Marks after values point to notes of the source that are not given here.

The first data set in a line: LogP by HPLC on reversed phase columns (EEC directive 79/831 Annex V.A8). The data set is classed as physicochemical.
Conditions: not given
As for the experimental part: [table] If more than one Log P value is available within the same method, all the values are given and separated by “+”. […] Lambda-max-values were determined using UV-spectra from 200 nm to 400 nm and the peak values of the chromatographic signals.
For the compound `OC(Cn1cncn1)(c1ccc(F)cc1F)C1(Oc2c(F)cc(F)cc2F)CC1` (stereo not shown) [Example I-02, 1-(2,4-difluorophenyl)-2-(1H-1,2,4-triazol-1-yl)-1-[1-(2,4,6-trifluorophenoxy)cyclopropyl]ethanol], the LogP – broadly, the decadic logarithm of the partition coefficient of the neutral form, usually between octanol and water – is 3.10^[b].

Regarding `CC(=O)OC(Cn1cncn1)(c1ccc(F)cc1F)C1(Oc2c(F)cc(F)cc2F)CC1` (stereo not shown) [Example I-04, 1-(2,4-difluorophenyl)-2-(1H-1,2,4-triazol-1-yl)-1-[1-(2,4,6-trifluorophenoxy)cyclopropyl]ethyl acetate], the LogP was 3.29^[b].

The same data set, now with this note: LogP.
The compound `OC(Cn1cncn1)(c1ccc(F)cc1F)C1(Oc2c(F)cc(F)cc2F)CC1` (stereo not shown) [Example I-02, 1-(2,4-difluorophenyl)-2-(1H-1,2,4-triazol-1-yl)-1-[1-(2,4,6-trifluorophenoxy)cyclopropyl]ethanol] returned a chromatographic logP of 3.11.

Regarding `CC(=O)OC(Cn1cncn1)(c1ccc(F)cc1F)C1(Oc2c(F)cc(F)cc2F)CC1` (stereo not shown) [Example I-04, 1-(2,4-difluorophenyl)-2-(1H-1,2,4-triazol-1-yl)-1-[1-(2,4,6-trifluorophenoxy)cyclopropyl]ethyl acetate], the chromatographic logP was found to be 3.32.

Still in this data set, the particulars now being: method [a]: LC-UV, acidic range, 0.1% formic acid in water and acetonitrile as eluent.
For `Fc1ccc(C2(C3(Oc4c(F)ccc(F)c4Cl)CC3)CO2)c(F)c1` (stereo not shown) [Example V-19], the lipophilicity (LogP) was 4.35^[a].

On to `Fc1ccc(C2(C3(Oc4c(Cl)cc(SC(F)(F)F)cc4Cl)CC3)CO2)c(F)c1` (stereo not shown) [Example V-13], for which the LogP was 6.07^[a].

As to `O=C(c1ccc(F)cc1F)C1(Oc2ccc(F)c(F)c2F)CC1` [IV-17], the LogP was 4.01^[a].

Take `OC(Cn1cncn1)(c1ccc(Cl)cc1F)C1(Oc2c(F)cc(Cl)cc2F)CC1` (racemic) [Example I-23]: the log partition coefficient (LogP) was 4.01^[a].

As for `OC(Cn1cncn1)(c1ccc(F)cc1F)C1(Oc2c(F)cc(Cl)cc2F)CC1` (single isomer, unassigned) [Example I-20], the log partition coefficient (LogP) is 3.55^[a].

Consider `Fc1ccc(C2(C3(Oc4ccc(F)c(F)c4F)CC3)CO2)c(F)c1` (stereo not shown) [Example V-16], for which the LogP is 4.28^[a].

`O=C(c1ccc(Cl)cc1F)C1(Oc2c(F)cc(Cl)cc2F)CC1` [IV-16]: the LogP is 5.03^[a].

Consider `COC(Cn1cncn1)(c1ccc(Cl)cc1F)C1(Oc2c(F)cc(Cl)cc2F)CC1` (racemic) [Example I-25], for which the LogP was 4.41^[a].

Regarding `O=C(c1ccc(Cl)cc1F)C1(Oc2c(F)cc(F)cc2F)CC1` [IV-15], the LogP is 4.49^[a].

`O=C(c1ccc(F)cc1F)C1(Oc2c(Cl)ccc(Cl)c2Cl)CC1` [IV-8]: the LogP was 5.03^[a].

Turning to `Fc1ccc(C2(C3(Oc4cc(F)c(F)c(F)c4)CC3)CO2)c(F)c1` (racemic) [Example V-04], the LogP is 4.64^[a].

As to `O=C(c1ccc(F)cc1F)C1(Oc2c(F)cc(Br)cc2F)CC1` [IV-3], the LogP was 4.54^[a].

As for `OC(Cn1cncn1)(c1ccc(F)cc1F)C1(Oc2c(F)cc(Cl)cc2F)CC1` (single isomer, unassigned) [Example I-19], the LogP was 3.55^[a].

Turning to `O=C(c1ccc(F)cc1F)C1(Oc2c(Cl)cc(F)cc2Cl)CC1` [IV-5], the LogP is 4.76^[a].

As to `OC(Cn1cncn1)(c1ccc(F)cc1F)C1(Oc2c(Cl)ccc(Cl)c2Cl)CC1` (racemic) [Example I-06], the LogP is 4.19^[a].

In the case of `Fc1ccc(C2(C3(Oc4c(Cl)cc(F)cc4Cl)CC3)CO2)c(F)c1` (stereo not shown) [Example V-12], the log partition coefficient (LogP) is 4.98^[a].

Take `N#Cc1cc(Cl)c(OC2(C(=O)c3ccc(F)cc3F)CC2)c(Cl)c1` [IV-14]: the log partition coefficient (LogP) is 4.15^[a].

Take `OC(Cn1cncn1)(c1ccc(Cl)cc1F)C1(Oc2c(F)cc(F)cc2F)CC1` (racemic) [Example I-24]: the LogP was 3.51^[a].

For the compound `Fc1ccc(C2(C3(Oc4c(Cl)ccc(Cl)c4Cl)CC3)CO2)c(F)c1` (racemic) [Example V-09], the LogP is 5.27^[a].

Take `O=C(c1ccc(F)cc1F)C1(Oc2c(F)cc(Cl)cc2F)CC1` [IV-2]: the LogP was 4.44^[a].

For the compound `O=C(c1ccc(F)cc1F)C1(Oc2cc(F)c(Br)c(F)c2)CC1` [IV-19], the lipophilicity (LogP) was 4.54^[a].

As to `Fc1ccc(C2(C3(Oc4c(F)cc(Cl)cc4F)CC3)CO2)c(F)c1` (racemic) [Example V-02], the LogP was 4.59^[a].

For the compound `Fc1ccc(C2(C3(Oc4cc(F)c(F)cc4F)CC3)CO2)c(F)c1` (stereo not shown) [Example V-17], the LogP is 4.10^[a].

`O=C(c1ccc(F)cc1F)C1(Oc2c(Cl)cc(Br)cc2Cl)CC1` [IV-7]: the LogP is 5.01^[a].

As to `OC(Cn1cncn1)(c1ccc(F)cc1F)C1(Oc2c(Cl)cc(Br)cc2Cl)CC1` (racemic) [Example I-12], the lipophilicity (LogP) is 4.62^[a].

As for `Fc1ccc(C2(C3(Oc4c(Cl)cc(Br)cc4Cl)CC3)CO2)c(F)c1` (racemic) [Example V-08], the LogP was 5.72^[a].

Turning to `OC(Cn1cncn1)(c1ccc(F)cc1F)C1(Oc2c(F)ccc(Cl)c2F)CC1` (racemic) [Example I-08], the LogP was 3.39^[a].

For the compound `Fc1ccc(C2(C3(Oc4c(F)ccc(F)c4F)CC3)CO2)c(F)c1` (racemic) [Example V-10], the LogP is 4.20^[a].

For `COC(Cn1cncn1)(c1ccc(Cl)cc1F)C1(Oc2c(F)cc(F)cc2F)CC1` (racemic) [Example I-26], the LogP was 3.97^[a].

For `O=C(c1ccc(F)cc1F)C1(Oc2c(Cl)cc(Cl)cc2Cl)CC1` [IV-4], the LogP is 5.34^[a].

With `OC(Cn1cncn1)(c1ccc(F)cc1F)C1(Oc2cc(F)c(F)cc2F)CC1` (racemic) [Example I-28], the LogP was 3.17^[a].

On to `OC(Cn1cncn1)(c1ccc(F)cc1F)C1(Oc2c(F)cc(Br)cc2F)CC1` (single isomer, unassigned) [Example I-22], for which the LogP is 3.63^[a].

For `OC(Cn1cncn1)(c1ccc(F)cc1F)C1(Oc2c(Cl)cc(Cl)cc2Cl)CC1` (racemic) [Example I-07], the log partition coefficient (LogP) was 4.49^[a].

With `OC(Cn1cncn1)(c1ccc(F)cc1F)C1(Oc2c(Cl)cc(SC(F)(F)F)cc2Cl)CC1` (racemic) [Example I-11], the LogP is 4.97^[a].

`COC(Cn1cncn1)(c1ccc(F)cc1F)C1(Oc2c(Cl)ccc(Cl)c2Cl)CC1` (racemic) [Example I-15]: the lipophilicity (LogP) is 4.46^[a].

Consider `OC(Cn1cncn1)(c1ccc(F)cc1F)C1(Oc2c(F)ccc(F)c2F)CC1` (racemic) [Example I-13], for which the LogP was 3.14^[a].

With `COC(Cn1cncn1)(c1ccc(F)cc1F)C1(Oc2c(Cl)cc(OC(F)(F)F)cc2Cl)CC1` (racemic) [Example I-18], the LogP is 4.87^[a].

In the case of `OC(Cn1cncn1)(c1ccc(F)cc1F)C1(Oc2c(Cl)cc(OC(F)(F)F)cc2Cl)CC1` (racemic) [Example I-09], the LogP is 4.62^[a].

Regarding `O=C(c1ccc(F)cc1F)C1(Oc2c(F)ccc(F)c2F)CC1` [IV-6], the LogP was 3.99^[a].

Take `OC(Cn1cncn1)(c1ccc(F)cc1F)C1(Oc2c(F)cc(Br)cc2F)CC1` (single isomer, unassigned) [Example I-21]: the LogP was 3.63^[a].

In the case of `O=C(c1ccc(F)cc1F)C1(Oc2cc(F)c(F)c(F)c2)CC1` [IV-10], the LogP is 4.20^[a].

Turning to `OC(Cn1cncn1)(c1ccc(F)cc1F)C1(Oc2ccc(F)c(F)c2F)CC1` (racemic) [Example I-27], the LogP is 3.30^[a].

On to `O=C(c1ccc(F)cc1F)C1(Oc2c(F)ccc(Cl)c2F)CC1` [IV-9], for which the LogP is 4.27^[a].

Turning to `O=C(c1ccc(F)cc1F)C1(Oc2cc(F)c(F)cc2F)CC1` [IV-18], the log partition coefficient (LogP) was 3.94^[a].

`Fc1cc(F)c(OC2(C3(c4ccc(Cl)cc4F)CO3)CC2)c(F)c1` (stereo not shown) [Example V-15]: the LogP was 4.72^[a].

Take `OC(Cn1cncn1)(c1ccc(F)cc1F)C1(Oc2cc(F)c(F)c(F)c2)CC1` (racemic) [Example I-05]: the lipophilicity (LogP) was 3.44^[a].

On to `Fc1ccc(C2(C3(Oc4c(F)ccc(Cl)c4F)CC3)CO2)c(F)c1` (racemic) [Example V-06], for which the log partition coefficient (LogP) is 4.65^[a].

`COC(Cn1cncn1)(c1ccc(F)cc1F)C1(Oc2c(F)ccc(F)c2F)CC1` (racemic) [Example I-14]: the LogP is 3.50^[a].

For `Fc1ccc(C2(C3(Oc4c(F)cc(Br)cc4F)CC3)CO2)c(F)c1` (racemic) [Example V-03], the LogP is given as 4.86.

For `Fc1ccc(C2(C3(Oc4cc(F)c(Br)c(F)c4)CC3)CO2)c(F)c1` (stereo not shown) [Example V-18], the LogP was 4.86^[a].

Turning to `O=C(c1ccc(F)cc1F)C1(Oc2c(F)ccc(F)c2Cl)CC1` [IV-20], the LogP was 4.25^[a].

On to `OC(Cn1cncn1)(c1ccc(F)cc1F)C1(Oc2cc(F)c(Br)c(F)c2)CC1` (racemic) [Example I-30], for which the LogP was 3.85^[a].

Take `O=C(c1ccc(F)cc1F)C1(Oc2c(Cl)cc(C(F)(F)F)cc2Cl)CC1` [IV-11]: the LogP was 5.25^[a].

Take `OC(Cn1cncn1)(c1ccc(F)cc1F)C1(Oc2c(Cl)cc(F)cc2Cl)CC1` (racemic) [Example I-16]: the LogP is 3.94^[a].

For the compound `O=C(c1ccc(Cl)cc1F)C1(Oc2c(F)cc(Br)cc2F)CC1` [IV-21], the LogP was 5.05^[a].

As for `O=C(c1ccc(F)cc1F)C1(Oc2c(Cl)cc(SC(F)(F)F)cc2Cl)CC1` [IV-13], the LogP was 5.85^[a].

Turning to `Fc1ccc(C2(C3(Oc4c(Cl)cc(C(F)(F)F)cc4Cl)CC3)CO2)c(F)c1` (racemic) [Example V-11], the LogP was 5.51^[a].

Take `Fc1ccc(C2(C3(Oc4c(Cl)cc(OC(F)(F)F)cc4Cl)CC3)CO2)c(F)c1` (racemic) [Example V-05]: the log partition coefficient (LogP) is 5.62^[a].

In the case of `Fc1cc(Cl)ccc1C1(C2(Oc3c(F)cc(Cl)cc3F)CC2)CO1` (stereo not shown) [Example V-14], the LogP is 5.23^[a].

The same data set, now with this note: method [b]: LC-UV, neutral range, 0.001 molar ammonium acetate solution in water and acetonitrile as eluent.
In turn, `Fc1ccc(C2(C3(Oc4c(F)cc(Br)cc4F)CC3)CO2)c(F)c1` (racemic) [Example V-03] gave a log partition coefficient (LogP) of 4.87.

Still in this data set, the particulars now being: reversed phase HPLC column, method [a]: LC-UV, acidic range, 0.1% formic acid in water and acetonitrile as eluent; read-out: LogP.
For `Fc1ccc(C2(C3(Oc4c(F)cc(F)cc4F)CC3)CO2)c(F)c1` (stereo not shown) [Example V-01, 2-(2,4-difluorophenyl)-2-[1-(2,4,6-trifluorophenoxy)cyclopropyl]oxirane], the chromatographic logP is 4.26.

Take `O=C(c1ccc(F)cc1F)C1(Oc2c(F)cc(F)cc2F)CC1` [IV-1, (2,4-difluorophenyl)[1-(2,4,6-trifluorophenoxy)cyclopropyl]methanone]: the chromatographic logP was found to be 3.96.

Still in this data set, the particulars now being: reversed phase HPLC column, method [b]: LC-UV, neutral range, 0.001 molar ammonium acetate solution in water and acetonitrile as eluent; read-out: LogP.
With `Fc1ccc(C2(C3(Oc4c(F)cc(F)cc4F)CC3)CO2)c(F)c1` (stereo not shown) [Example V-01, 2-(2,4-difluorophenyl)-2-[1-(2,4,6-trifluorophenoxy)cyclopropyl]oxirane], the chromatographic logP came out at 4.26.
